Test results as given in patent publication US20240158446A1, “CYCLIC COMPOUND HAVING SELECTIVE INHIBITORY ACTION ON KRAS OVER HRAS AND NRAS” (CHUGAI SEIYAKU KABUSHIKI KAISHA, priority 2021, published 2024).
Like-named read-outs stand apart in the source and are kept apart here. Where a SMILES comes first, the peptide text is derived from it. Bridges are numbered along the chain shown (N, C = ends). [ ]: non-standard residue; d: D form. The star is where a group is joined. hPhe(3,5-F2-4-CF3) = N[C@@H](CCc1cc(F)c(C(F)(F)F)c(F)c1)C(=O)O; hPhe(3-Cl-4-CF3) = N[C@@H](CCc1ccc(C(F)(F)F)c(Cl)c1)C(=O)O; NPrPhe(4-CF3) = CCCN[C@@H](Cc1ccc(C(F)(F)F)cc1)C(=O)O; NMeGly(cPent) = CN[C@H](C(=O)O)C1CCCC1; Hyp = O=C(O)[C@@H]1C[C@@H](O)CN1; NMeD = CN[C@@H](CC(=O)O)C(=O)O; Ac4c(3-oxa) = NC1(C(=O)O)COC1; NMeL = CN[C@@H](CC(C)C)C(=O)O; Morpholide = C1CN(*)CCO1; Ac5c = NC1(C(=O)O)CCCC1; Aze = O=C(O)[C@@H]1CCN1; Sar = CNCC(=O)O

Tests used:
[1] = target: GDP-bound KRAS wild-type protein (Homo sapiens, UniProt P01116); experiment: Binding to KRAS by surface plasmon resonance (SPR), Single Cycle Kinetics; settings: GDP-bound KRAS wild-type protein, read-out: KRAS KD
Chain of GDP-bound KRAS wild-type protein (P01116 whole entry): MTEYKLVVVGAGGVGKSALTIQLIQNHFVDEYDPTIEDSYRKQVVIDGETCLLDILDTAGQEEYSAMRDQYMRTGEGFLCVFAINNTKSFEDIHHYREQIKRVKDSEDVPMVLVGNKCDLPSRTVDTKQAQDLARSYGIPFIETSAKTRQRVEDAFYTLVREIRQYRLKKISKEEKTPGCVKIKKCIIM

[2] = target: GDP-bound NRAS wild-type protein (Homo sapiens, UniProt P01111); experiment: Binding to NRAS by surface plasmon resonance (SPR), Single Cycle Kinetics; settings: for NRAS/KRAS (ratio of KD value for NRAS to KD value for KRAS) / NRAS/KRAS (ratio of KD value with respect to NRAS to KD value with respect to KRAS): SPR, GDP-bound NRAS wild-type protein vs GDP-bound KRAS wild-type protein; for NRAS/KRAS (ratio of KD value with respect to GDP-bound NRAS wild-type protein to KD value with respect to KRAS): SPR KD ratio NRAS/KRAS, class symbols
Chain of GDP-bound NRAS wild-type protein (P01111 whole entry): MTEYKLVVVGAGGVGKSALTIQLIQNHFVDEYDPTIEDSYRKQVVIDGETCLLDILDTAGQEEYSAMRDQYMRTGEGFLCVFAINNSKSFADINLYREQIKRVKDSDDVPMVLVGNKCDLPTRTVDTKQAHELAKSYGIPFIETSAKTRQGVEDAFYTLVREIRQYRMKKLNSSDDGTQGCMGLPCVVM

[3] = target: GDP-bound HRAS wild-type protein (Homo sapiens, UniProt P01112); experiment: Binding to HRAS by surface plasmon resonance (SPR), Single Cycle Kinetics; settings: for HRAS/KRAS (ratio of KD value for HRAS to KD value for KRAS) / HRAS/KRAS (ratio of KD value with respect to HRAS to KD value with respect to KRAS): SPR, GDP-bound HRAS wild-type protein vs GDP-bound KRAS wild-type protein; for HRAS/KRAS (ratio of KD value with respect to GDP-bound HRAS wild-type protein to KD value with respect to KRAS): SPR KD ratio HRAS/KRAS, class symbols
Chain of GDP-bound HRAS wild-type protein (P01112 whole entry): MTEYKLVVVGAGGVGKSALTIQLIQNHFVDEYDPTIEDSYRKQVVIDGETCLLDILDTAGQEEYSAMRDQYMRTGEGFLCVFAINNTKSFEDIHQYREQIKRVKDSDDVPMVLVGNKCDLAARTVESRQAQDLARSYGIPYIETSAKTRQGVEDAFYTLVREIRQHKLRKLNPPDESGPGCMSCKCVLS

[4] = SPR Single Cycle Kinetics, 1:1 binding model
[5] = SPR, Single Cycle Kinetics, 1:1 binding model

| Structure (SMILES) | Kd ([1]; SPR, Single Cycle Kinetics) [nM] | Kd [1, 4] [nM] | NRAS/KRAS (ratio of KD value for NRAS to KD value for KRAS) [2] | HRAS/KRAS (ratio of KD value for HRAS to KD value for KRAS) [3] | NRAS/KRAS (ratio of KD value with respect to NRAS to KD value with respect to KRAS) [2] | HRAS/KRAS (ratio of KD value with respect to HRAS to KD value with respect to KRAS) [3] | further results |
| --- | --- | --- | --- | --- | --- | --- | --- |
| CCCO[C@@H]1C[C@H]2C(=O)NC3(CC(C)(C)C3)C(=O)N(C)[C@@H](C3CCCC3)C(=O)N(C)[C@H](C(=O)N3CCCCC3)CC(=O)N(C)[C@H]3CCCc4ccc(cc4)C[C@@H](C(=O)N(C)CC(=O)N[C@@H](CCc4ccc(C(F)(F)F)c(OC)c4)C(=O)N2C1)N1CC/C=C\C[C@@H](C1=O)N(C)C(=O)CN(C)C(=O)[C@H]([C@@H](C)CC)NC3=O [PP3064] | 0.37 | – | B (a compound having 3 or more and less than 10 is denoted as B) | B (a compound having 3 or more and less than 10 is denoted as B) | – | – | – |
| CCCN1C(=O)[C@@H]2CCN2C(=O)CN(C)C(=O)[C@H]([C@@H](C)CC)NC(=O)[C@H](CC(C)C)N(C)C(=O)C[C@@H](C(=O)N2CCOCC2)N(C)C(=O)[C@H](C2CCCC2)N(C)C(=O)C2(COC2)NC(=O)[C@@H]2CCCN2C(=O)[C@H](CCc2cc(F)c(C(F)(F)F)c(F)c2)NC(=O)CN(C)C(=O)[C@@H]1Cc1ccc(C(F)(F)F)cc1 [PP0801] ([NMeL]I[Sar][Aze][NPrPhe(4-CF3)][Sar][hPhe(3,5-F2-4-CF3)]P[Ac4c(3-oxa)][NMeGly(cPent)][NMeD]-Morpholide; lactam N-11) | – | 0.45 | – | – | C (A compound having a KD ratio of 0.1 or more and less than 3 is denoted as C) | B (a compound having 3 or more and less than 10 is denoted as B) | – |
| CC[C@H](C)[C@@H]1NC(=O)[C@H](CC(C)C)N(C)C(=O)C[C@@H](C(=O)N2CCOCC2)N(C)C(=O)[C@H](C2CCCC2)N(C)C(=O)C2(CCOCC2)NC(=O)[C@@H]2CCCN2C(=O)[C@H](CCc2cc(F)c(C(F)(F)F)c(F)c2)NC(=O)CN(C)C(=O)[C@H](Cc2ccc(C(F)(F)F)cc2)N2CCCCC[C@@H](C2=O)N(C)C(=O)CN(C)C1=O [PP0502] | – | 12 | – | – | A (a compound having 10 or more and less than 20 is denoted as A) | B (a compound having 3 or more and less than 10 is denoted as B) | – |
| CCO[C@@H]1C[C@H]2C(=O)NC3(CCC3)C(=O)N(C)[C@@H](CC(C)(C)C)C(=O)N(C)[C@H](C(=O)N3CCCC3)CC(=O)N(C)[C@@H](CC)C(=O)N[C@@H]([C@@H](C)CC)C(=O)N(C)CC(=O)N(C)[C@H]3C/C=C\CCN(C3=O)[C@@H](CC3CCCCC3)C(=O)N(C)CC(=O)N[C@@H](CCc3cc(F)c(C(F)(F)F)c(F)c3)C(=O)N2C1 [PP2772] | – | 0.43 | – | – | – | – | NRAS/KRAS (ratio of KD value with respect to GDP-bound NRAS wild-type protein to KD value with respect to KRAS) [2]: B (a compound having 3 or more and less than 10 is denoted as B); HRAS/KRAS (ratio of KD value with respect to GDP-bound HRAS wild-type protein to KD value with respect to KRAS) [3]: B (a compound having 3 or more and less than 10 is denoted as B) |
| CCO[C@@H]1C[C@H]2C(=O)NC3(CCC3)C(=O)N(C)[C@@H](C3CCCC3)C(=O)N(C)[C@H](C(=O)N(C)CCOC)CC(=O)N(C)[C@@H](CC)C(=O)N[C@@H]([C@@H](C)CC)C(=O)N(C)CC(=O)N(C)[C@H]3C/C=C\CCN(C3=O)[C@@H](Cc3ccc(C(F)(F)F)cc3)C(=O)N(C)CC(=O)N[C@@H](CCc3ccc4sccc4c3)C(=O)N2C1 [PP1322] | – | – | – | – | – | – | Kd [1, 5]: 0.59 nM; NRAS/KRAS (ratio of KD value for NRAS to KD value for KRAS) ([2]; KD ratio class): A (a compound having 10 or more and less than 20 is denoted as A); HRAS/KRAS (ratio of KD value for HRAS to KD value for KRAS) ([3]; KD ratio class): A (a compound having 10 or more and less than 20 is denoted as A) |
| CCC[C@H]1C(=O)N[C@@H]([C@@H](C)CC)C(=O)N(C)CC(=O)N(C)[C@H]2C/C=C\CCN(C2=O)[C@@H](Cc2ccc(C(F)(F)F)cc2)C(=O)N(C)CC(=O)N[C@@H](CCc2ccc(C(F)(F)F)c(OC)c2)C(=O)N2C[C@H](OCC)C[C@H]2C(=O)NC2(CC(C)(C)C2)C(=O)N(C)[C@@H](C2CCCC2)C(=O)N(C)[C@H](C(=O)N(C)C)CC(=O)N1C [PP1560] | – | – | – | – | – | – | Kd [1, 5]: 0.069 nM; NRAS/KRAS (ratio of KD value for NRAS to KD value for KRAS) ([2]; KD ratio class): A (a compound having 10 or more and less than 20 is denoted as A); HRAS/KRAS (ratio of KD value for HRAS to KD value for KRAS) ([3]; KD ratio class): B (a compound having 3 or more and less than 10 is denoted as B) |
| CCO[C@@H]1C[C@H]2C(=O)NC3(CC(C)(C)C3)C(=O)N(C)[C@@H](C(CC)CC)C(=O)N(C)[C@H](C(=O)N(C)C)CC(=O)N(C)[C@@H](CC3CCC3)C(=O)N[C@@H]([C@@H](C)CC)C(=O)N(C)CC(=O)N(C)[C@H]3C/C=C\CCN(C3=O)[C@@H](Cc3ccc(C(F)(F)F)cc3)C(=O)N(C)CC(=O)N[C@@H](CCc3ccc(Cl)c(Cl)c3)C(=O)N2C1 [PP2180] | 0.66 | – | AA (a compound having 20 or more is denoted as AA) | A (a compound having 10 or more and less than 20 is denoted as A) | – | – | – |
| CC[C@H](C)[C@@H]1NC(=O)[C@H](CC(C)C)N(C)C(=O)C[C@@H](C(=O)N2CCCC2)N(C)C(=O)[C@H](C2CCCC2)N(C)C(=O)C2(CCCC2)NC(=O)[C@@H]2CCCN2C(=O)[C@H](CCc2cc(F)c(C(F)(F)F)c(F)c2)NC(=O)CN(C)C(=O)[C@H](Cc2ccc(C(F)(F)F)cc2)N2CCCC[C@@H](C2=O)N(C)C(=O)CN(C)C1=O [PP0571] | – | 0.05 | – | – | B (a compound having 3 or more and less than 10 is denoted as B) | B (a compound having 3 or more and less than 10 is denoted as B) | – |
| CCC[C@H]1C(=O)N[C@@H]([C@@H](C)CC)C(=O)N(C)CC(=O)N(C)[C@H]2C/C=C\CCN(C2=O)[C@@H](Cc2ccc(C(F)(F)F)cc2)C(=O)N(C)CC(=O)N[C@@H](CCc2ccc3sc(C)c(C)c3c2)C(=O)N2C[C@H](OCC)C[C@H]2C(=O)NC2(CC(C)(C)C2)C(=O)N(C)[C@@H](C(CC)CC)C(=O)N(C)[C@H](C(=O)N(C)C)CC(=O)N1C [PP2900] | – | 0.44 | – | – | – | – | NRAS/KRAS (ratio of KD value with respect to GDP-bound NRAS wild-type protein to KD value with respect to KRAS) [2]: AA (a compound having 20 or more is denoted as AA); HRAS/KRAS (ratio of KD value with respect to GDP-bound HRAS wild-type protein to KD value with respect to KRAS) [3]: A (a compound having 10 or more and less than 20 is denoted as A) |

Further lines, with some results ahead:

| Kd ([1]; SPR, Single Cycle Kinetics) [nM] | Kd [1, 4] [nM] | Structure (SMILES) | NRAS/KRAS (ratio of KD value for NRAS to KD value for KRAS) [2] | HRAS/KRAS (ratio of KD value for HRAS to KD value for KRAS) [3] | NRAS/KRAS (ratio of KD value with respect to NRAS to KD value with respect to KRAS) [2] | HRAS/KRAS (ratio of KD value with respect to HRAS to KD value with respect to KRAS) [3] | further results |
| --- | --- | --- | --- | --- | --- | --- | --- |
| 0.62 | – | CCO[C@@H]1C[C@H]2C(=O)NC3(CCC3)C(=O)N(C)[C@@H](C3CCCC3)C(=O)N(C)[C@H](C(=O)N(C)C)CC(=O)N(C)[C@@H](CC)C(=O)N[C@@H]([C@@H](C)CC)C(=O)N(C)CC(=O)N(C)[C@H]3CCCCCN(C3=O)[C@@H](Cc3ccc(C(F)(F)F)cc3)C(=O)N(C)CC(=O)N[C@@H](CCc3c(F)c(F)c(C(F)(F)F)c(F)c3F)C(=O)N2C1 [PP0891] | B (a compound having 3 or more and less than 10 is denoted as B) | B (a compound having 3 or more and less than 10 is denoted as B) | – | – | – |
| – | 0.15 | CCCN1C(=O)CN(C)C(=O)[C@@H]2CCN2C(=O)[C@H]([C@@H](C)CC)NC(=O)[C@H](CC(C)C)N(C)C(=O)C[C@@H](C(=O)N(C)C)N(C)C(=O)[C@H](C2CCCC2)N(C)C(=O)C2(CCCC2)NC(=O)[C@@H]2C[C@@H](OCC)CN2C(=O)[C@H](CCc2ccc(C(F)(F)F)c(Cl)c2)NC(=O)CN(C)C(=O)[C@@H]1Cc1ccc(C(F)(F)F)cc1 [PP0433] ([NMeL]I[Aze][Sar][NPrPhe(4-CF3)][Sar][hPhe(3-Cl-4-CF3)][Hyp](Et)[Ac5c][NMeGly(cPent)][NMeD]-NMe2; lactam N-11) | – | – | B (a compound having 3 or more and less than 10 is denoted as B) | B (a compound having 3 or more and less than 10 is denoted as B) | – |
| 0.18 | – | CCC[C@@H]1C[C@H]2C(=O)NC3(CCC3)C(=O)N(C)[C@@H](C3CCCC3)C(=O)N(C)[C@H](C(=O)N(C)C)CC(=O)N(C)[C@@H](CC(C)C)C(=O)N[C@@H]([C@@H](C)CC)C(=O)N(C)CC(=O)N(C)[C@H]3C/C=C\CCN(C3=O)[C@@H](Cc3ccc(C)cc3)C(=O)N(C)CC(=O)N[C@@H](CCc3cc(F)c(C(F)(F)F)c(F)c3)C(=O)N2C1 [PP2231] | A (a compound having 10 or more and less than 20 is denoted as A) | B (a compound having 3 or more and less than 10 is denoted as B) | – | – | – |
| 0.058 | – | CCO[C@@H]1C[C@H]2C(=O)NC3(CCC3)C(=O)N(C)[C@@H](C3CCCC3)C(=O)N(C)[C@H](C(=O)N(C)C)CC(=O)N(C)[C@@H](CC)C(=O)N[C@@H]([C@@H](C)CC)C(=O)N(C)CC(=O)N(C)[C@H]3C[C@H]4C[C@H]4CN(C3=O)[C@@H](Cc3ccc(C(F)(F)F)cc3)C(=O)N(C)CC(=O)N[C@@H](CCc3cc(F)c(C(F)(F)F)c(F)c3)C(=O)N2C1 [PP0830] | C (A compound having a KD ratio of 0.1 or more and less than 3 is denoted as C) | C (A compound having a KD ratio of 0.1 or more and less than 3 is denoted as C) | – | – | – |
